US10730886B2, “Compound having effect of inhibiting platelet aggregation and salt thereof, and composition for preventing or treating thrombotic diseases, containing same” (SHIN POONG PHARMACEUTICAL CO., LTD., priority 2015, dated 2020)

Legend:
[1] = system: human liver cells (HepG2); test: Cytotoxicity in human liver cells HepG2 (WST-1); format: cell-based; details: HepG2, 250 μM, 18 hours
Method: 5-3. Evaluation of Cytotoxicity of Candidate Substances Using Human Liver Cells
Experiments were conducted to evaluate cytotoxicity in human liver cells (HepG2). HepG2 cells, which are human liver carcinoma cell lines, were cultured in DMEM (Dulbecco's minimum essential medium) supplemented with 10% FBS (fetal bovine serum) and 1% Penicillin/Streptomycin at 37° C. and 5% CO2. The cells were cultured in a 48 well plate at 4×10^4 cells/well for 24 hours and then used in the experiments. The HepG2 cells were treated with the candidate substances (250 μM) for 18 hours, and then the medium was removed and WST-1 was added, followed by shading for 3 hours for reaction. After 3 hours, the supernatant was taken and absorbance was measured at 450 nm. Cell viability was calculated by comparing the absorbance measured after adding WST-1 to HepG2 cells not treated with the candidate substances. Acetaminophen (40 mM) was used as a control.

[2] = system: thrombin-induced platelet aggregation, Human PRP; test: Thrombin-induced platelet aggregation in human PRP (lumi-aggregometer); format: cell-based; details: thrombin 0.6-0.8 U/ml;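 also: aggregation recorded for 5 min after thrombin addition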
Method: To investigate whether the candidate substance has inhibition selectivity for shear-stress-induced platelet aggregation, which is by a physical stimulus, […] experiment was conducted by activating platelets with physiological agonists—i.e., thrombin, collagen and ADP—to study the inhibitory effect of the candidate substance.
Human PRP (598.8 μl) was treated with 1.2 μl of the candidate substance per concentration (25, 100, 250 μM) and reacted at 37° C. for 3 minutes using a thermomixer. Then, PRP (495 μl) was put in the aggregometer cuvette and preincubated for 1 minute, followed by treatment with platelet aggregation-inducing reagent, thrombin (0.6-0.8 U/ml), collagen (2-5 μg/ml), or ADP (adenosine diphosphate, 15-20 μM) at the minimum concentration causing maximum aggregation. The degree of aggregation of the platelets was measured by a turbidity change using a lumi-aggregometer (Chrono-Log Co., USA). The turbidity of the PRP was considered as 0%, and the turbidity of the PPP was considered as 100%. During the measurement, the reaction mixture was continuously stirred at 1,000 rpm with a silicone-coated magnetic stir bar.

[3] = 2-week repeat-dose toxicity study; format: in vivo; details: both sexes, mouse, in vivo; ICR mice, oral 100, 300, 1000 mg/kg once a day for 2 weeks; read-out: NOAEL (No observed adverse effect level)
Method: (§1) After oral administration of vehicle (0.5% methylcellulose) or the candidate substances at low dose, medium dose, and high dose (100, 300, 1000 mg/kg) to ICR mice (female, male, 18 to 26 g) once a day for 2 weeks, the NOAEL values of the candidate substances were calculated by observing and recording mortality, body weight change, clinical observations, food and drinking water consumption, gross necropsy findings, histopathological evaluation of abnormal organ, and organ weights.

ICR mice = test: 2-week repeat-dose toxicity study; format: in vivo; details: oral 100, 300 and 1000 mg/kg once a day for 2 weeks
Method: as §1

[4] = system: Human Washed Platelets (WP); test: Shear stress-induced platelet aggregation inhibition in human washed platelets (WP); format: cell-based; details: for inhibited shear stress-induced platelet aggregation in WP: 10, 25, 50 μM; for inhibition at 10 µM / inhibition at 25 µM / inhibition at 50 µM: Platelet, human WP, read-out: Degree of inhibition (%, Mean ± SEM)
Method: 1-2. Measurement of Platelet Aggregation Inhibitory Effect Using Human Washed Platelets (WP)
To separate human washed platelets (WP), blood was collected from the veins of healthy males using acid-citrate-dextrose (ACD) as an anticoagulant. At the time of blood collection, platelet activation was inhibited by treatment with 1 μM of prostaglandin E1 (PGE1). The collected blood was centrifuged at 150 g for 15 minutes to obtain PRP from the supernatant, which was centrifuged at 500 g for 10 minutes to obtain platelets. The platelets were suspended in and washed with a washing buffer (134 mM NaCl, 2.9 mM KCl, 1.0 mM MgCl2.6H2O, 10.0 mM HEPES, 5.0 mM dextrose, 12.0 mM NaHCO3, 0.34 mM Na2HPO4, 10% ACD, 0.3% bovine serum albumin, 1 μM PGE1, pH 7.4), and then re-centrifuged at 400 g for 10 minutes. The platelets thus obtained were suspended in the suspension buffer. The number of platelets in WP were counted using a hemacytometer. The platelets were diluted with the suspension buffer so as to include 3×10^8 platelets per 1 ml, and CaCl2 was added to give a final concentration of 2 mM and then used in the experiments. vWF was added to WP to give a final concentration of 10 μg/ml. WP was put on a cone-plate viscometer, and shear stress was applied to the WP at 37° C. for 3 minutes at a shear rate of 10,800 s^−1. In order to evaluate efficacy of candidate substances, prior to the induction of platelet aggregation, WP was treated with 10, 25, and 50 μM of candidate substances and incubated at 37° C. for 3 minutes using a thermomixer. After applying the shear stress, 20 μl of WP was fixed in 280 μl of the suspension buffer containing 0.5% glutaraldehyde. Then, the number of single platelets in the suspension was counted using a hemacytometer. The degree of inhibition by the candidate substance was calculated according to formula (1). No shear stress-applied group served as control, and only shear stress-applied group served as a positive control.

ICR mouse = test: Bleeding side effect by repeated administration (tail bleeding time); details: 50 mg/kg oral once daily for 7 days
Method: One hour after the last administration, the mice were anesthetized by breathing, and the 4 mm portion from the tail tip of the mice was cut. Then, the tail tip of the mice was immersed in a transparent 15-ml tube containing the pre-prepared 37° C. saline. The time when blood was not spread any more and the bleeding stopped was measured.

plasma = test: Plasma coagulation time, Activated Partial Thromboplastin Time (aPTT); format: biochemical; details: plasma treated 3 minutes
Method: In order to separate plasma, blood was collected with 3.2% sodium citrate as an anticoagulant. Whole blood was centrifuged at 2000 g for 20 minutes to obtain plasma. After treating the plasma with the test substances for 3 minutes, plasma coagulation time was measured. For plasma coagulation time, Activated Partial Thromboplastin Time (aPTT) and Prothrombin Time (PT) were measured using BBL® Fibrometer (Becton Dickinson, Cockeysville, Md.). For measurement of aPTT, the plasma was treated with aPTT reagents in fibrometer cup and reacted at 37° C. for 3 min. After the reaction, CaCl2 was added and blood coagulation time was measured immediately. For the measurement of PT, PT reagent was added to warmed plasma, and blood coagulation time was measured immediately. DTI, known to prolong plasma coagulation time, was used as a control.

SMILES	Cell vaibility (%) [1]	Degree of platelet aggregation (%, Mean ± SEM) ([2]; 25 μM)	Degree of platelet aggregation (%, Mean ± SEM) ([2]; 100 μM)	Degree of platelet aggregation (%, Mean ± SEM) ([2]; 250 μM)	NOAEL at 2 weeks [3]	findings in body weight change, clinical observations, food and drinking water consumption, gross necropsy findings, and organ weights (ICR mice)	mortality (ICR mice)	inhibited shear stress-induced platelet aggregation in WP [4]	inhibition at 10 µM [4]	inhibition at 25 µM [4]	inhibition at 50 µM [4]	Bleeding time (ICR mouse)	plasma coagulation time - aPTT, Time (plasma; 25 μM)	plasma coagulation time - aPTT, Time (plasma; 100 μM)	plasma coagulation time - aPTT, Time (plasma; 250 μM)
COc1cc(C(=O)Oc2c(C)occc2=O)ccc1O [Example 14, 2-Methyl-4-oxo-4H-pyran-3-yl 4-hydroxy-3-methoxybenzoate]	87.3 ± 2.7%	81.3 ± 2.5%	84.0 ± 0.6%	86.0 ± 4.6%	> 1000 mg/kg	no abnormal findings were observed	no dead animals were observed	in a dose-dependent manner	8 ± 1.5%	27 ± 2.3%	39 ± 0.6%	1.6 ± 0.3 min	27.0 ± 0.4 s	26.7 ± 0.2 s	26.3 ± 1.7 s
CCc1occc(=O)c1OC(=O)c1ccc(O)c(OC)c1 [Example 13, 2-Ethyl-4-oxo-4H-pyran-3-yl 4-hydroxy-3-methoxybenzoate]	98.3 ± 5.5%	92.5 ± 5.5%	95.0 ± 12.0%	88.5 ± 4.5%	> 1000 mg/kg	no abnormal findings were observed	no dead animals were observed	in a dose-dependent manner	12 ± 3.8%	29 ± 4.1%	34 ± 2.7%	1.6 ± 0.4 min	24.7 ± 1.0 s	26.6 ± 1.8 s	27.5 ± 1.7 s
O=C(c1cc(O)ccc1O)N1CCc2sccc2C1 [Example 20, (6,7-Dihydrothieno[3,2-c]pyridin-5(4H)-yl)(2,5-dihydroxyphenyl)methanone]	87.7 ± 2.6%	84.0 ± 3.2%	82.3 ± 3.7%	82.0 ± 15.0%	–	–	–	in a dose-dependent manner	18 ± 1.5%	42 ± 4.2%	46 ± 2.1%	–	24.9 ± 1.0 s	25.3 ± 0.6 s	25.8 ± 0.9 s
COc1ccc(NC(=O)c2ccc(O)c(OC)c2)c([N+](=O)[O-])c1 [Example 15, 4-Hydroxy-3-methoxy-N-(4-methoxy-2-nitrophenyl)benzamide]	89.7 ± 2.3%	95.5 ± 3.5%	100.5 ± 4.5%	98.0 ± 3.0%	–	–	–	in a dose-dependent manner	14 ± 2.5%	26 ± 4%	36 ± 3.2%	–	26.3 ± 2.3 s	26.6 ± 1.0 s	29.3 ± 0.5 s
O=C(c1ccc(O)c(O)c1)N1CCc2sccc2C1 [Example 1, (6,7-Dihydrothieno[3,2-c]pyridin-5(4H)-yl)(3,4-dihydroxyphenyl)methanone]	91.7 ± 2.0%	88.0 ± 2.1%	88.7 ± 6.1%	78.7 ± 1.8%	–	–	–	in a dose-dependent manner	4 ± 3.5%	23 ± 1.2%	27 ± 1.7%	–	23.8 ± 1.9 s	24.8 ± 2.0 s	26.7 ± 0.8 s
O=C(c1cc(O)ccc1O)N1CCC(c2noc3ccc(F)cc23)CC1 [Example 23, (2,5-Dihydroxyphenyl)(4-(5-fluorobenzo[d]isoxazol-3-yl)piperidin-1-yl)methanone]	82.7 ± 5.5%	96.0 ± 4.0%	88.5 ± 6.5%	93.5 ± 1.5%	–	–	–	–	–	–	–	–	26.2 ± 0.2 s	29.5 ± 1.2 s	26.1 ± 0.2 s
COc1cc(C(=O)N2CCc3sccc3C2)ccc1O [Example 12, (6,7-Dihydrothieno[3,2-c]pyridin-5(4H)-yl)(4-hydroxy-3-methoxyphenyl)methanone]	89.0 ± 2.3%	99.5 ± 7.5%	95.0 ± 12.0%	88.5 ± 4.5%	–	–	–	in a dose-dependent manner	10 ± 2.1%	30 ± 0.9%	33 ± 2.1%	–	24.3 ± 0.1 s	26.7 ± 1.0 s	27.2 ± 2.0 s
